Key:
[1] = molecular target: IKZF1 (Homo sapiens, UniProt Q13422+Q96SW2); assay: Prolabel quantification of IKZF1 protein levels in 293GT cells; format: cell-based; conditions: Prolabel assay, read-out: IKZF1 EC50
Protocol: (§1) The Prolabel system from DiscoverX was used to develop high-throughput and quantitative assays to measure changes in IKZF1, IKZF2 and GSPT1 protein levels in response to compounds. The prolabel tag was derived from the alpha fragment of beta galactosidase and has the following protein sequence: mssnslavvlqrrdwenpgvtqlnrlaahppfaswrnseeartdrpsqqlrslnge. The complementary fragment of beta-galactosidase (from DiscoverX), is added to the prolabel tag to form an active beta galactosidase enzyme whose activity can be precisely measured. In this way, the levels of a fusion protein with the prolabel tag can be quantified in cell lysates.
(§2) Lentiviral vectors, based on the Invitrogen pLenti6.2/V5 DEST backbone, were constructed that placed the prolabel tag upstream of IKZF1, IKZF2 or GSPT1 and expressed the fusion protein from a CMV promoter.
(§3) To ensure moderate and consistent expression of the prolabel fusion proteins across all cells in the population, stable cell lines were constructed from cells expressing a single copy of the construct. Lentivirus packaged with the constructs was made using the Virapower kit from Invitrogen.
(§4) The levels of prolabel tagged fusion proteins in compound treated cell lines were measured as follows:
(§5) Day 1, Cells were diluted to 1.0×10^6 cells/ml in normal growth medium. 17.5 μL of cells were plated in each well of a solid white 384 well plate. Plates were incubated overnight in a 37° C. tissue culture incubator.
(§6) Day 2, Serial dilutions of compounds were made in 384 well plates from 10 mM stocks. 15 μL of DMSO was added to each well of a 384 well plate. In the first column 15 μL of stock compound was added. The solution was mixed and 15 μL was transferred to the next column. This was repeated until 20 two-fold dilutions were prepared. 2.5 μL of diluted compounds were transferred into 60 μL of cell culture medium in another 384 well plate, and mixed well. 2.5 μL of this mixture was added to the plated cells. The final DMSO concentration was 0.5% and the highest concentration of compound was 50 μM. Plates were incubated overnight (e.g., about 14 h, 18 h, or 24 h) in a 37° C. tissue culture incubator.
(§7) Day 3, Plates were removed from the incubator and allowed to equilibrate at rt for 30 minutes. Prolabel substrate (DiscoverX PathHunter Prolabel Detection Kit, User manual: 93-0180) was added as described by the manufacturers protocols. Plates were incubated at rt for three hours and luminescence was read using an Envision reader (Perkin Elmer) Data was analyzed and visualized using the Spotfire software package.

[2] = molecular target: IKZF2 (Homo sapiens, UniProt Q96SW2+Q9UKS7); assay: Prolabel quantification of IKZF2 protein levels in 293GT cells; format: cell-based; conditions: for inhibition at 10 µM: 24 h, read-out: IKZF2 % protein reduction at 10 μM, 24 h; for inhibition at 10 µM / DC50: 293GT cells; for DC50: Prolabel assay, read-out: IKZF2 EC50
Protocol: as §1, §2, §3, §4, §5, §6, §7

Chain of IKZF2 (Q9UKS7 whole entry): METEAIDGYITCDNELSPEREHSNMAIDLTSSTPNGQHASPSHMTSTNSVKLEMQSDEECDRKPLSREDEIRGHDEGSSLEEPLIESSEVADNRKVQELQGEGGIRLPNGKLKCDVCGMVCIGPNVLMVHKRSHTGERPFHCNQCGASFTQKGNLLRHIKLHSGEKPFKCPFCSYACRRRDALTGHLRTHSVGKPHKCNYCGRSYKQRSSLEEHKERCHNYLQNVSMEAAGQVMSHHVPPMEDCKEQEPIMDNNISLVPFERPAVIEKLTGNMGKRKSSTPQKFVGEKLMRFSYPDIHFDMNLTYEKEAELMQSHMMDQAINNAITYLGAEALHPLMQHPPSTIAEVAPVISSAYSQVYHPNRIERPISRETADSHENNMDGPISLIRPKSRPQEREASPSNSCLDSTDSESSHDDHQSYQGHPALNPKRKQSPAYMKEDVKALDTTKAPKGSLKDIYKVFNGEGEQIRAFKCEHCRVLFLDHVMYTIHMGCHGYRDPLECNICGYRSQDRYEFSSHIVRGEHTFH
Chain of IKZF2 (Q96SW2 whole entry): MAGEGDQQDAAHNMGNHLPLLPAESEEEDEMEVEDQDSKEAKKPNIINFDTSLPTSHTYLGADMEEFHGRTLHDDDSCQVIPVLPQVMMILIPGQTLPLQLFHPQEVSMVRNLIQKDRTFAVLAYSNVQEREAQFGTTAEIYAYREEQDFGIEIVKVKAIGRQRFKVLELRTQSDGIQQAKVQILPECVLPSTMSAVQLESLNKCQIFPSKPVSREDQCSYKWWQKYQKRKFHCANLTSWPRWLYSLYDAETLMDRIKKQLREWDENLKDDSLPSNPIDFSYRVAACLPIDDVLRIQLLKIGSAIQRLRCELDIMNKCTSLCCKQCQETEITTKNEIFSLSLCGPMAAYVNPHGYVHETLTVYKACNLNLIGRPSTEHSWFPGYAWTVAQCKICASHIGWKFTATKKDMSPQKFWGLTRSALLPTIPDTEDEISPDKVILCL
Chain of IKZF2 (Q16531 whole entry partner): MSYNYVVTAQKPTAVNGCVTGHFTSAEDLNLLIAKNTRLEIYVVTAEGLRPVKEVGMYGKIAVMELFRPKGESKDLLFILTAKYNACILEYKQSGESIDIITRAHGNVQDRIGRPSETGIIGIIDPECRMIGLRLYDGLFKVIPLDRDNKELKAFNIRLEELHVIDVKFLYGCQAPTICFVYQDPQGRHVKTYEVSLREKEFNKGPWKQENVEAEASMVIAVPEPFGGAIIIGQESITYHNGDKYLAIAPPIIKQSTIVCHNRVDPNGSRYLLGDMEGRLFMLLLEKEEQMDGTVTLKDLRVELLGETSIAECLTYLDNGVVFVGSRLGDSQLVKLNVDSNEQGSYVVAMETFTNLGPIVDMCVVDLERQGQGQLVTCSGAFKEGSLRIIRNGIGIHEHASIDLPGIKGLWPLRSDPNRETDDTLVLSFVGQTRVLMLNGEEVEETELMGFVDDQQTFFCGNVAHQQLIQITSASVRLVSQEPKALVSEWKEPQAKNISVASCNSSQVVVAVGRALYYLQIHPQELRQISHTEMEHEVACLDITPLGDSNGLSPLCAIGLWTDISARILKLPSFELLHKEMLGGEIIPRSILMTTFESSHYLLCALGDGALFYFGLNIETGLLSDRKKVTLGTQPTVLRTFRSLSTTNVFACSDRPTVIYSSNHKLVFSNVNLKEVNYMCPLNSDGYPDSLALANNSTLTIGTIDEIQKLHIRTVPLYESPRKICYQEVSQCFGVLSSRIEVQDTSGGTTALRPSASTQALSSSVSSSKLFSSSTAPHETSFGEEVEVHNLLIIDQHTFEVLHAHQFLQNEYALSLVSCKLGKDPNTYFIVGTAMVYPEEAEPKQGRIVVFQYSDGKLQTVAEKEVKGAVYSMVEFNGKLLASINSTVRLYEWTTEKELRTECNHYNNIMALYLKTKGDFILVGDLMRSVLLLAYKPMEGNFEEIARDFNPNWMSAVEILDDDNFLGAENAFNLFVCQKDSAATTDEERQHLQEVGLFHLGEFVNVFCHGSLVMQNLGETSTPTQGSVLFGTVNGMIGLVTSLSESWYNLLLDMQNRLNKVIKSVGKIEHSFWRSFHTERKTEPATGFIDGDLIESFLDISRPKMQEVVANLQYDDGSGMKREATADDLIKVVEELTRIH
Chain of IKZF1 (Q13422 whole entry, the tested form may be a part): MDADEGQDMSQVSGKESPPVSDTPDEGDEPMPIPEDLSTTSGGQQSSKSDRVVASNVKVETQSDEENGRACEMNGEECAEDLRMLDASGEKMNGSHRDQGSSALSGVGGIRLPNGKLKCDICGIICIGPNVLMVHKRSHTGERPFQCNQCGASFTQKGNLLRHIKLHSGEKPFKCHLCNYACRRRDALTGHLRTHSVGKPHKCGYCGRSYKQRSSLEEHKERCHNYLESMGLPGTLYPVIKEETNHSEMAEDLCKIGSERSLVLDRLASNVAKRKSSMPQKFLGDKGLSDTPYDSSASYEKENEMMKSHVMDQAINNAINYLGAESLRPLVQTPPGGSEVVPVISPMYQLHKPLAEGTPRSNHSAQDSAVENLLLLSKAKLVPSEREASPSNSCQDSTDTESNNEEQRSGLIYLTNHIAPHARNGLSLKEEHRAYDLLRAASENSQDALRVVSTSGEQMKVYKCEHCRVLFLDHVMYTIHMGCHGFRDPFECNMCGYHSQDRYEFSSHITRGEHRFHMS
Chain of IKZF1 (Q96SW2 whole entry, the tested form may be a part): as the sequence (Q96SW2 whole entry) above
Chain of IKZF1 (Q16531 whole entry partner, the tested form may be a part): as the sequence (Q16531 whole entry partner) above

| DC50 [1] | inhibition at 10 µM [2] | DC50 [2] | IKZF2 protein levels as compared to the control (DMSO) ([2]; Prolabel assay in HEK293GT cells, bar graph) | Compound |
| --- | --- | --- | --- | --- |
| > 30 µM | 55% | 4.5 µM |  | O=C1CCC(N2Cc3cc(C4CCN(Cc5ccc(C(=O)O)cc5)CC4)ccc3C2=O)C(=O)N1 (stereo not shown) [Compound I-72, 4-((4-(2-(2,6-dioxopiperidin-3-yl)-1-oxoisoindolin-5-yl)piperidin-1-yl)methyl)benzoic acid] |
| > 30 µM | 70% | 0.011 µM |  | O=C1CCC(N2Cc3cc(C4CCN(Cc5cccc(C(F)F)c5)CC4)ccc3C2=O)C(=O)N1 (stereo not shown) [Compound I-73, 3-(5-(1-(3-(difluoromethyl)benzyl)piperidin-4-yl)-1-oxoisoindolin-2-yl)piperidine-2,6-dione] |
| > 30 µM | 55% | 2.1 µM |  | O=C1CCC(N2Cc3cc(C4CCN(Cc5cccc(C(=O)O)c5)CC4)ccc3C2=O)C(=O)N1 (stereo not shown) [Compound I-74, 3-((4-(2-(2,6-dioxopiperidin-3-yl)-1-oxoisoindolin-5-yl)piperidin-1-yl)methyl)benzoic acid] |
| > 30 µM | 80% | 0.02 µM |  | CCCc1ccc(CN2CCC(c3ccc4c(c3)CN(C3CCC(=O)NC3=O)C4=O)CC2)cc1 (stereo not shown) [Compound I-75, 3-(1-oxo-5-(1-(4-propylbenzyl)piperidin-4-yl)isoindolin-2-yl)piperidine-2,6-dione] |
| > 30 µM | 75% | 0.017 µM |  | O=C1CCC(N2Cc3cc(C4CCN(Cc5ccc(C(F)(F)F)cc5)CC4)ccc3C2=O)C(=O)N1 (stereo not shown) [Compound I-76, 3-(1-oxo-5-(1-(4-(trifluoromethyl)benzyl)piperidin-4-yl)isoindolin-2-yl)piperidine-2,6-dione] |

The next lines start with the compound.

| Compound | DC50 [1] | inhibition at 10 µM [2] | DC50 [2] | IKZF2 protein levels as compared to the control (DMSO) ([2]; Prolabel assay in HEK293GT cells, bar graph) |
| --- | --- | --- | --- | --- |
| O=C1CCC(N2Cc3cc(C4CCN(Cc5ccc(OC(F)(F)F)cc5)CC4)ccc3C2=O)C(=O)N1 (stereo not shown) [Compound I-51, 3-(1-oxo-5-(1-(4-(trifluoromethoxy)benzyl)piperidin-4-yl)isoindolin-2-yl)piperidine-2,6-dione] | > 30 µM | 60% | 0.015 µM |  |
| O=C1CCC(N2Cc3cc(C4CCN(Cc5cccc(OC(F)(F)F)c5)CC4)ccc3C2=O)C(=O)N1 (stereo not shown) [Compound I-54, 3-(1-oxo-5-(1-(3-(trifluoromethoxy)benzyl)piperidin-4-yl)isoindolin-2-yl)piperidine-2,6-dione] | > 30 µM | 60% | 0.02 µM |  |
| O=C1CCC(N2Cc3cc(C4CCN(Cc5ccccn5)CC4)ccc3C2=O)C(=O)N1 (stereo not shown) [Compound I-58, 3-(1-oxo-5-(1-(pyridin-2-ylmethyl)piperidin-4-yl)isoindolin-2-yl)piperidine-2,6-dione] | > 30 µM | 60% | 0.053 µM |  |
| O=C1CCC(N2Cc3cc(C4CCN(Cc5ccc(CF)cc5)CC4)ccc3C2=O)C(=O)N1 (stereo not shown) [Compound I-63, 3-(5-(1-(4-(fluoromethyl)benzyl)piperidin-4-yl)-1-oxoisoindolin-2-yl)piperidine-2,6-dione] | > 30 µM | 75% | 0.011 µM |  |
| CCc1ccc(CN2CCC(c3ccc4c(c3)CN(C3CCC(=O)NC3=O)C4=O)CC2)cc1 (stereo not shown) [Compound I-66, 3-(5-(1-(4-ethylbenzyl)piperidin-4-yl)-1-oxoisoindolin-2-yl)piperidine-2,6-dione] | > 30 µM | 70% | 0.009 µM |  |
| COc1ccccc1CN1CCC(c2ccc3c(c2)CN(C2CCC(=O)NC2=O)C3=O)CC1 (stereo not shown) [Compound I-67, 3-(5-(1-(2-methoxybenzyl)piperidin-4-yl)-1-oxoisoindolin-2-yl)piperidine-2,6-dione] | > 30 µM | 70% | 0.058 µM |  |
| Cc1ccc(CN2CCC(c3ccc4c(c3)CN(C3CCC(=O)NC3=O)C4=O)CC2)cc1F (stereo not shown) [Compound I-69, 3-(5-(1-(3-fluoro-4-methylbenzyl)piperidin-4-yl)-1-oxoisoindolin-2-yl)piperidine-2,6-dione] | > 30 µM | 80% | 0.015 µM | decreased |
